Consider one compound from US10011814B2, “Salt formulations for the fermentation of marine microorganisms” (Triphase Research and Development I Corp., priority 2006, dated 2018).

Experiment [1] deals with Salinispora tropica CNB440. The settings on record: CNB440, day 6 production culture. As to the method: (§1) The first seed cultures (100 mL medium) in 500-mL Erlenmeyer flasks were incubated for 96 hours before inoculating 5 mL of the first seed culture into the second seed medium with the same composition as the first seed medium. The second seed cultures (100 mL medium in 500-mL Erlenmeyer flask) were incubated for 48 hours before inoculating 5 mL of the second seed culture into the production medium (100 mL in a 500-mL Erlenmeyer flask).
(§2) Per liter of DI H2O, the production medium consisted of: 10 g Starch, 4 g Hy Soy, 4 g Yeast Extract, 1 g CaCO3, 40 mg Fe2(SO4)3, and 100 mg KBr. The production medium was then supplemented with a chemically defined salt formulation consisted of the following common salt components along with different levels of NaCl:
(§3) The NaCl levels used were 0, 5, 10, 15, 20, 24 and 30 g/L. About […], sterile XAD-7 resin slurry was added to the production cultures in a final concentration of 20 g/L. The production culture was then further incubated and harvested at various time points to determine productivity.

Experiment [2] concerns Salinispora tropica NPS021184. The settings on record: NPS21184, day 6 production culture. As to the method: as §1, §2, §3
Experiment [3] deals with Salinispora tropica CNB476. The conditions noted are these: CNB476, day 6 production culture. As to the method: as §1, §2, §3

Molecules are shown by their SMILES. Read-outs that look alike come from different tables or passages of the source.

Consider `[Cl-].[Na+]` [NaCl], for which the “Packed Cell Volume” value in experiment [1] (NaCl 0 g/L) turned out to be 0%; in experiment [1] (NaCl 5 g/L) it was 5%; in experiment [1] (NaCl 10 g/L) it was 5%; in experiment [1] (NaCl 15 g/L) it was 4%; in experiment [1] (NaCl 20 g/L), 5%; in experiment [1] (NaCl 24 g/L) it was 5%. Moreover, the “Packed Cell Volume” value in experiment [1] (NaCl 30 g/L) is listed as 5%; in experiment [2] (NaCl 0 g/L) it was 0%; in experiment [2] (NaCl 5 g/L) it was 6%; in experiment [2] (NaCl 10 g/L), 6%; in experiment [2] (NaCl 15 g/L), 6%; in experiment [2] (NaCl 20 g/L) it was 5%. For the same compound, the “Packed Cell Volume” value turned out to be 5% in experiment [2] (NaCl 24 g/L); 5% in experiment [2] (NaCl 30 g/L); 0% in experiment [3] (NaCl 0 g/L); 2% in experiment [3] (NaCl 5 g/L); 5% in experiment [3] (NaCl 10 g/L); 5% in experiment [3] (NaCl 15 g/L). The “Packed Cell Volume” value in experiment [3] (NaCl 20 g/L), in experiment [3] (NaCl 24 g/L) and in experiment [3] (NaCl 30 g/L) was 6% throughout.
